Experimental data: patent EP2525820B1, “NOVEL CLASS OF MONOSPECIFIC AND BISPECIFIC HUMANIZED ANTIBODIES THAT TARGET THE INSULIN-LIKE GROWTH FACTOR TYPE I RECEPTOR (IGF-1R)” (Immunomedics, Inc., priority 2010, dated 2011)

Tests used:
CAG human myeloma cells = type: in vivo, SCID mice
Protocol: CAG human myeloma cells are grown in cell culture to a density that allows 1 million cells to be harvested for transplantation to 6-8-week old female SCID mice obtained from Charles River Laboratories (Frederick, MD). The mice are immunosuppressed by pretreatment with fludarabine and cyclophosphamide 3 days before intravenous injection of 5-10 x […] myeloma cells as described in Stein et al. (Blood. 2004; 104:3705-11). Mice are examined daily for signs of distress or hind-leg paralysis, and weighed weekly. Paralysis of the hind legs or a weight loss of ≥ 20% is used as the survival endpoint, when the animals are euthanized. Groups of 8-10 mice are used. […] The effects of combining bortezomib with hR1 are evaluated in the same myeloma model. Treatments are given as two i.p. doses/week for 3 weeks, initiated on day 5 after injection of the myeloma cells. […] Treatment with hR1 at 0.6 mg/mouse repeated twice weekly for 3 weeks increases the median survival time to 60 days. When bortezomib and hR1 treatments are combined, the median survival time is increased further to 79 days for 0.5 mg bortezomib + 0.6 mg hR1, which is significant (P=0.04).

DDD = DDD of RII / RIIα dimers; read-out: binding constant for DDD; cited from earlier work
RII isoform of PKA = RII isoform of PKA (Homo sapiens, UniProt P13861); details: cited from earlier work
Sequence of RII isoform of PKA (P13861 whole entry, canonical isoform): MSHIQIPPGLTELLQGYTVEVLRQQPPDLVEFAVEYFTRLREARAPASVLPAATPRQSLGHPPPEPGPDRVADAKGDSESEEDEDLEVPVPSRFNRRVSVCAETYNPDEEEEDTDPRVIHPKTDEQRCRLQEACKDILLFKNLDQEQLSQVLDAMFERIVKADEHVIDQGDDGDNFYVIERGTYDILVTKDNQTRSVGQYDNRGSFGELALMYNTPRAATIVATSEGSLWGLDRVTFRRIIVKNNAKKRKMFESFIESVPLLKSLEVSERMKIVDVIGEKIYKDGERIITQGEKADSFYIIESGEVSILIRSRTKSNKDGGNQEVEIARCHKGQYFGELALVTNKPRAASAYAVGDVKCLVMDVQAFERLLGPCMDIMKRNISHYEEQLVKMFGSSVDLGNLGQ

Sequence of DDD (P13861 2-45 limits assumed): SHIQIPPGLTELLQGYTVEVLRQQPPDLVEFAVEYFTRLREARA

CC(C)C[C@H](NC(=O)[C@H](Cc1ccccc1)NC(=O)c1cnccn1)B(O)O [bortezomib]
increase of median survival (CAG human myeloma cells; 0.5 mg/kg, versus untreated control mice): 21.2%
tolerability, body-weight loss (CAG human myeloma cells; mouse, in vivo, 0.5 mg/kg): well tolerated, with no body-weight loss
median survival (CAG human myeloma cells; two i.p. doses/week for 3 weeks from day 5, bortezomib 0.5 mg/kg, hR1 0.6 mg/mouse, untreated control 33 days): 40 days

QIEYLAKQIVDNAIQQA (SEQ ID NO: 17) [AKAP-IS]
Kd (DDD): 0.4 nM

QIEYVAKQIVDYAIHQA (SEQ ID NO:39) [SuperAKAP-IS]
selectivity for the RII isoform of PKA compared with the RI isoform (RII isoform of PKA): five order of magnitude higher selectivity
